Active and inactive are the calls of the source. The calls are words filed in the database; no cut-off is given here.
Tests used:
2B4 = assay: Induction of NFAT-GFP signal in mouse 2B4 reporter cells expressing mMincle + FcRgamma at 0.1 to 1 nmol incubated for 18 hrs by flow cytometry analysis; assay type: functional, cell-based; details: dose 0.1-1 nmol
BMDM [1] = assay: Induction of IL-6 production in C57BL/6 mouse BMDM cells at 1 nmol per well incubated for 24 hrs by ELISA; assay type: functional, cell-based
BMDM [2] = assay: Induction of MIP-2 production in C57BL/6 mouse BMDM cells at 1 nmol per well incubated for 24 hrs by ELISA; assay type: functional, cell-based
BMDM [3] = assay: Induction of IL-1beta production in C57BL/6 mouse BMDM cells at 1 nmol per well incubated for 24 hrs by ELISA; assay type: functional, cell-based
[4] = Drug hydrolysis in water at pH 4.4 assessed as half life by HPLC-UV analysis; assay type: physicochemical
[5] = Drug hydrolysis in water at pH 1 assessed as half life by HPLC-UV analysis; assay type: physicochemical
BMDM [6] = assay: Induction of IL-1beta production in C57BL/6 mouse BMDM at 1 nmol incubated for 48 hrs by ELISA; assay type: functional, cell-based
Splenocyte [7] = assay: Improvement in memory response in ovalbumin immunized C57BL/6 mouse splenocytes assessed as increase in IFNgamma level incubated for 72 hrs by ELISA; assay type: functional, cell-based
BMDM [8] = assay: Induction of IL-23 production in C57BL/6 mouse BMDM at 1 nmol incubated for 48 hrs by ELISA; assay type: functional, cell-based
HEK293 [9] = assay: Induction of IL-8 production in HEK293 cells expressing mouse NOD2 at 5 to 50 uM incubated for 20 hrs by ELISA; assay type: functional, cell-based; details: Homo sapiens, dose 5-50 µM
Mus musculus [10] = species: Mus musculus; assay: Adjuvanticity in ovalbumin immunized C57BL/6 mouse assessed as increase in anti-OVA IgG titers at 40 nmol boosted with OVA at 1 week and measured after week 4, 5, 6 by ELISA; assay type: functional, organism-based; details: time 6.0 weeks
[11] = Drug hydrolysis in water at pH 7 assessed as half life by HPLC-UV analysis; assay type: physicochemical; details: buffer
[12] = Toxicity in ovalbumin immunized C57BL/6 mouse assessed as body weight loss at 40 nmol boosted with OVA at 1 week and measured after week 3, 4, 5 and 6; details: in vivo, 1008 h, time 6 weeks
BMDM [13] = assay: Induction of IL-6 production in C57BL/6 mouse BMDM at 1 nmol incubated for 48 hrs by ELISA; assay type: functional, cell-based
HEK293 [14] = assay: Induction of IL-8 production in HEK293 cells expressing mouse NOD2 at 5 to 50 uM incubated for 20 hrs in presence of 10 to 100 uM (4R)-4-[[(2S)-2-[[(2R)-2-[(3R,4R,5S,6R)-3-acetamido-2,5-dihydroxy-6-(hydroxymethyl)tetrahydropyran-4-yl]oxypropanoyl]amino]propanoyl]amino]-5-amino-5-oxo-pentanoic acid by ELISA; assay type: functional, cell-based; details: Homo sapiens, dose 5-50 µM
Mus musculus [15] = species: Mus musculus; assay: Adjuvanticity in ovalbumin immunized C57BL/6 mouse assessed as increase in anti-OVA IgG titers boosted with OVA at 1 week and measured after week 3, 4, 5 and 6 in presence of (4R)-4-[[(2S)-2-[[(2R)-2-[(3R,4R,5S,6R)-3-acetamido-2,5-dihydroxy-6-(hydroxymethyl)tetrahydropyran-4-yl]oxypropanoyl]amino]propanoyl]amino]-5-amino-5-oxo-pentanoic acid by ELISA; assay type: functional, organism-based; details: time 6.0 weeks
Splenocyte [16] = assay: Improvement in memory response in ovalbumin immunized C57BL/6 mouse splenocytes assessed as increase in IFNgamma level incubated for 72 hrs in presence of (4R)-4-[[(2S)-2-[[(2R)-2-[(3R,4R,5S,6R)-3-acetamido-2,5-dihydroxy-6-(hydroxymethyl)tetrahydropyran-4-yl]oxypropanoyl]amino]propanoyl]amino]-5-amino-5-oxo-pentanoic acid by ELISA; assay type: functional, cell-based
[17] = Toxicity in ovalbumin immunized C57BL/6 mouse assessed as reactogenicity boosted with OVA at 1 week and measured after week 3, 4, 5 and 6 in presence of (4R)-4-[[(2S)-2-[[(2R)-2-[(3R,4R,5S,6R)-3-acetamido-2,5-dihydroxy-6-(hydroxymethyl)tetrahydropyran-4-yl]oxypropanoyl]amino]propanoyl]amino]-5-amino-5-oxo-pentanoic acid; details: in vivo, 1008 h, time 6 weeks
BMDM [18] = assay: Induction of IL-23 production in C57BL/6 mouse BMDM cells at 2 ug/ml incubated for 48 hrs in presence of 1 nmol [(2R,3S,4S,5R,6R)-3,4,5-trihydroxy-6-[(3R,4S,5S,6R)-3,4,5-trihydroxy-6-[(4-octadecoxybenzoyl)oxymethyl]tetrahydropyran-2-yl]oxy-tetrahydropyran-2-yl]methyl 4-octadecoxybenzoate by ELISA; assay type: functional, cell-based; details: dose 2.0 µg/ml
BMDM [19] = assay: Induction of IL-23 production in C57BL/6 mouse BMDM cells at 2.5 ug/ml incubated for 48 hrs in presence of 1 nmol [(2R,3S,4S,5R,6R)-3,4,5-trihydroxy-6-[(3R,4S,5S,6R)-3,4,5-trihydroxy-6-[(4-octadecoxybenzoyl)oxymethyl]tetrahydropyran-2-yl]oxy-tetrahydropyran-2-yl]methyl 4-octadecoxybenzoate by ELISA; assay type: functional, cell-based; details: dose 2.5 µg/ml
BMDM [20] = assay: Induction of IL-23 production in C57BL/6 mouse BMDM cells at 1 nmol per well incubated for 48 hrs in presence of 2.5 ug/ml (2R,6S)-2-amino-6-[[(4R)-4-amino-4-carboxy-butanoyl]amino]heptanedioic acid by ELISA; assay type: functional, cell-based
BMDM [21] = assay: Induction of IL-1beta production in C57BL/6 mouse BMDM cells at 1 nmol per well incubated for 48 hrs in presence of 2 ug/ml (4R)-4-[[(2S)-2-[[(2R)-2-[(3R,4R,5S,6R)-3-acetamido-2,5-dihydroxy-6-(hydroxymethyl)tetrahydropyran-4-yl]oxypropanoyl]amino]propanoyl]amino]-5-amino-5-oxo-pentanoic acid by ELISA; assay type: functional, cell-based
BMDM [22] = assay: Induction of IL-23 production in C57BL/6 mouse BMDM cells at 1 nmol per well incubated for 48 hrs in presence of 2ug/ml (4R)-4-[[(2S)-2-[[(2R)-2-[(3R,4R,5S,6R)-3-acetamido-2,5-dihydroxy-6-(hydroxymethyl)tetrahydropyran-4-yl]oxypropanoyl]amino]propanoyl]amino]-5-amino-5-oxo-pentanoic acid by ELISA; assay type: functional, cell-based
BMDM [23] = assay: Induction of IL-23 production in C57BL/6 mouse BMDM cells at 1 nmol per well incubated for 48 hrs in presence of 2 ug/ml murabutide by ELISA; assay type: functional, cell-based
HEK293 [24] = assay: Induction of IL-8 production in HEK293 cells expressing mouse NOD2 at 10 to 100 uM incubated for 20 hrs in presence of 5 to 50 uM [(2R,3S,4S,5R,6R)-3,4,5-trihydroxy-6-[(3R,4S,5S,6R)-3,4,5-trihydroxy-6-[(4-octadecoxybenzoyl)oxymethyl]tetrahydropyran-2-yl]oxy-tetrahydropyran-2-yl]methyl 4-octadecoxybenzoate by ELISA; assay type: functional, cell-based; details: Homo sapiens, dose 10-100 µM
[25] = Toxicity in ovalbumin immunized C57BL/6 mouse assessed as reactogenicity boosted with OVA at 1 week and measured after week 3, 4, 5 and 6 in presence of 6,6'-Di-0-(2,4-bis(octadecyloxy)benzoyl)-alpha,alpha'-D-trehalose; details: in vivo, 1008 h, time 6 weeks
BMDM [26] = assay: Induction of IL-1beta production in C57BL/6 mouse BMDM cells at 2 ug/ml incubated for 48 hrs in presence of 1 nmol [(2R,3S,4S,5R,6R)-3,4,5-trihydroxy-6-[(3R,4S,5S,6R)-3,4,5-trihydroxy-6-[(4-octadecoxybenzoyl)oxymethyl]tetrahydropyran-2-yl]oxy-tetrahydropyran-2-yl]methyl 4-octadecoxybenzoate by ELISA; assay type: functional, cell-based; details: dose 2.0 µg/ml
HEK293 [27] = assay: Induction of IL-8 production in HEK293 cells expressing mouse NOD2 at 10 to 100 uM incubated for 20 hrs in presence of 5 to 50 uM 6,6'-Di-0-(2,4-bis(octadecyloxy)benzoyl)-alpha,alpha'-D-trehalose by ELISA; assay type: functional, cell-based; details: Homo sapiens, dose 10-100 µM
Splenocyte [28] = assay: Improvement in memory response in ovalbumin immunized C57BL/6 mouse splenocytes assessed as increase in IFNgamma level incubated for 72 hrs in presence of 6,6'-Di-0-(2,4-bis(octadecyloxy)benzoyl)-alpha,alpha'-D-trehalose by ELISA; assay type: functional, cell-based
Splenocyte [29] = assay: Improvement in memory response in ovalbumin immunized C57BL/6 mouse splenocytes assessed as increase in IFNgamma level incubated for 72 hrs in presence of [(2R,3S,4S,5R,6R)-3,4,5-trihydroxy-6-[(3R,4S,5S,6R)-3,4,5-trihydroxy-6-[(4-octadecoxybenzoyl)oxymethyl]tetrahydropyran-2-yl]oxy-tetrahydropyran-2-yl]methyl 4-octadecoxybenzoate by ELISA; assay type: functional, cell-based
Mus musculus [30] = species: Mus musculus; assay: Adjuvanticity in ovalbumin immunized C57BL/6 mouse assessed as increase in anti-OVA IgG titers boosted with OVA at 1 week and measured after week 3, 4, 5 and 6 in presence of 6,6'-Di-0-(2,4-bis(octadecyloxy)benzoyl)-alpha,alpha'-D-trehalose by ELISA; assay type: functional, organism-based; details: time 6.0 weeks

CONCCCn1cc(CCCCCCCCCCCCCCCCCOc2ccc(C(=O)OC[C@H]3O[C@H](O[C@H]4O[C@H](COC(=O)c5ccc(OCCCCCCCCCCCCCCCCCc6cn(CCCNOC)nn6)cc5)[C@@H](O)[C@H](O)[C@H]4O)[C@H](O)[C@@H](O)[C@@H]3O)cc2)nn1
Activity (2B4): Active

CCCCCCCCCCCCCCCCCCOc1ccc(C(=O)OC[C@H]2O[C@H](O[C@H]3O[C@H](COC(=O)c4ccc(OCCCCCCCCCCCCCCCCCC)cc4OCc4cn(CCCN(OC)[C@@H]5O[C@H](CO)[C@@H](O)[C@H](O)[C@H]5NC(C)=O)nn4)[C@@H](O)[C@H](O)[C@H]3O)[C@H](O)[C@@H](O)[C@@H]2O)c(OCc2cn(CCCN(OC)[C@@H]3O[C@H](CO)[C@@H](O)[C@H](O)[C@H]3NC(C)=O)nn2)c1
Activity (BMDM [1]): inactive | Activity (BMDM [2]): inactive | Activity (BMDM [3]): inactive

CON(CCCn1cc(CCCCCCCCCCCCCCCCCOc2ccc(C(=O)OC[C@H]3OC(O[C@H]4O[C@H](COC(=O)c5ccc(OCCCCCCCCCCCCCCCCCc6cn(CCCN(OC)[C@H]7O[C@@H](CO)[C@H](O)[C@@H](O[C@H](C)C(=O)N[C@@H](C)C(=O)N[C@H](CCC(=O)O)C(N)=O)[C@@H]7NC(C)=O)nn6)cc5)[C@@H](O)[C@H](O)[C@H]4O)[C@H](O)[C@@H](O)[C@@H]3O)cc2)nn1)[C@@H]1O[C@@H](CO)[C@H](O)[C@@H](O[C@H](C)C(=O)N[C@@H](C)C(=O)N[C@H](CCC(=O)O)C(N)=O)[C@@H]1NC(C)=O (stereo not given in full)
half-life [4]: 60 h | half-life [5]: 1 h | Activity (BMDM [6]): Active | Activity (Splenocyte [7]): Active | Activity (2B4): Active | Activity (BMDM [8]): Active | Activity (HEK293 [9]): Active | Activity (Mus musculus [10]): Active | t1/2 [11]: 1 yr | Activity [12]: Non-Toxic | Activity (BMDM [13]): Active

CCCCCCCCCCCCCCCCCCOc1ccc(C(=O)OC[C@H]2O[C@H](O[C@H]3O[C@H](COC(=O)c4ccc(OCCCCCCCCCCCCCCCCCC)cc4OCCCCCCCCCCCCCCCCCC)[C@@H](O)[C@H](O)[C@H]3O)[C@H](O)[C@@H](O)[C@@H]2O)c(OCCCCCCCCCCCCCCCCCC)c1
Activity (2B4): Active | Activity (HEK293 [14]): Active | Activity (HEK293 [9]): inactive | Activity (Mus musculus [15]): Active | Activity (Splenocyte [16]): inactive | Activity [17]: Toxic

CCCCOC(=O)[C@@H](CCC(N)=O)NC(=O)[C@H](C)NC(=O)[C@@H](C)O[C@H]1[C@H](O)[C@@H](CO)OC(O)[C@@H]1NC(C)=O (stereo not given in full)
Activity (BMDM [18]): inactive

N[C@H](CCC[C@H](NC(=O)CC[C@@H](N)C(=O)O)C(=O)O)C(=O)O
Activity (BMDM [19]): inactive

CCCCCCCCCCCCCCCCCCOc1ccc(C(=O)OC[C@H]2O[C@H](O[C@H]3O[C@H](COC(=O)c4ccc(OCCCCCCCCCCCCCCCCCC)cc4)[C@@H](O)[C@H](O)[C@H]3O)[C@H](O)[C@@H](O)[C@@H]2O)cc1
Activity (BMDM [20]): inactive | Activity (2B4): Active | Activity (BMDM [21]): Active | Activity (BMDM [22]): Active | Activity (HEK293 [14]): Active | Activity (HEK293 [9]): inactive | Activity (Splenocyte [16]): Active | Activity (BMDM [23]): inactive

CCCCCCCCCCCCCCCCCCCCCC(=O)OC[C@@H]1O[C@H](O[C@H]2O[C@H](COC(=O)CCCCCCCCCCCCCCCCCCCCC)[C@@H](O)[C@H](O)[C@H]2O)[C@@H](O)[C@H](O)[C@H]1O
Activity (HEK293 [9]): inactive

CC(=O)N[C@@H]1[C@@H](O[C@H](C)C(=O)N[C@@H](C)C(=O)N[C@H](CCC(=O)O)C(N)=O)[C@H](O)[C@@H](CO)O[C@H]1O [MURAMYL DIPEPTIDE]
Activity (HEK293 [24]): Active | Activity [25]: Toxic | Activity (BMDM [26]): Active | Activity (BMDM [18]): Active | Activity (HEK293 [27]): Active | Activity (Splenocyte [28]): inactive | Activity (Splenocyte [29]): Active | Activity (Mus musculus [30]): Active
